Source: patent publication US20250127725A1, “MAGNESIUM OXIDE TABLETS” (SETOLAS Holdings, Inc., priority 2021, published 2025)

Assays:
Format in all cases: physicochemical
Settings in all cases: magnesium oxide raw material
[1] = Angle of repose, Multitester MT-1
Protocol: The angle of repose of magnesium oxide particles to be used in the present invention may be set to an upper limit of 50° or less, or 48° or less, since an excessively large angle of repose may lead to a variation in the mass of the resulting tablets during tableting due to deteriorated flowability. On the other hand, the lower limit of the angle of repose is not specified because the lower the angle of repose, the better. The angle of repose can be measured, e.g., using Multitester MT-1 from Seishin Enterprise Co., Ltd.
(§1) The physical properties of the magnesium oxide used in these examples were measured, and the results were as follows. • Average particle size: 7.691 μm (measured according to laser diffraction scattering using a Microtrac Bell MT3300 EX2) • Bulk density: 0.249 g/mL (measured with 100 mL stainless steel cup (actual mass value (g)/100 (mL)) • Angle of repose: 41.7° (measured using MT-1 Multitester from Seishin Enterprise Co., Ltd.)
After mixing, the following items were evaluated. • Bulk density: Measured with 100 mL stainless steel cup (actual mass value (g)/100 (mL) • Angle of repose: Measured using MT-1 Multitester from Seishin Enterprise Co., Ltd.

[2] = Average particle size of magnesium oxide, laser diffraction scattering, MT3300 EX2
Protocol: The average particle size and average particle diameter of the magnesium oxide particles of the present invention and magnesium hydroxide particles used as raw materials therefor can be measured according to laser diffraction scattering method with a commonly used instrument, such as a particle size analyzer (MT3300EX2 from Microtrac Bell Corporation).
as §1

[3] = Bulk density, 100 mL stainless steel cup
Protocol: The bulk density of magnesium oxide particles to be used in the present invention may be set to an upper limit of 0.8 g/mL or less, or 0.7 g/mL or less, since too high a density may cause a decrease in hardness. On the other hand, since too low bulk density may cause capping and lamination, the lower limit may be 0.1 g/mL or more, or 0.2 g/mL or more. Bulk density can be measured, e.g., using a 100 mL stainless steel cup (actual mass value (g)/100 (mL)).
as §1
The weighed raw materials of magnesium oxide and internal additives were put into a polyethylene bag (1100 mm×600 mm) and mixed by shaking the bag 30 times from side to side. After the mixing, the bulk density was measured using a 100 mL stainless steel cup (actual mass value (g)/100 (mL)).
[formula] […]

[O]=[Mg] [Magnesium oxide] gave an Angle of repose [1] of 41.7 °, an Average particle size [2] of 7.691 μm and a Bulk density [3] of 0.249 g/mL.
